System: MOLM-13 cells
Assay: MOLM-13 Cell Proliferation Assay (indicator of DHODH inhibition)
Assay type: cell-based
Details: Homo sapiens, 72 Hours of culture, CellTiter-Glo, no uridine
In short: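 Low-passage MOLM-13 cells (10^4/well) in RPMI 1640 + 10% FBS exposed to compound (0.5% DMSO final) for 72 h at 37 °C, 5% CO2. Viability read by CellTiter-Glo luminescence; growth reflects de novo pyrimidine synthesis dependent on DHODH.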

Row | SMILES | IC50
1 | Fc1ccc(C2c3[nH]c4ccc(F)c(F)c4c3CCN2c2ncc(F)cn2)cc1 (centres unmarked) [Compound 83, 5,6-difluoro-1-(4-fluorophenyl)-2-(5-fluoropyrimidin-2-yl)-2,3,4,9-tetrahydro-1H-pyrido[3,4-b]indole] | 259 nM
2 | Cc1ccc(C2c3[nH]c4ccc(F)c(F)c4c3CCN2c2ncc(Cl)cn2)cc1 (centres unmarked) [Compound 84, 2-(5-chloropyrimidin-2-yl)-5,6-difluoro-1-(4-methylphenyl)-2,3,4,9-tetrahydro-1H-pyrido[3,4-b]indole] | 65.6 nM
3 | Fc1ccc(C2c3[nH]c4ccc(F)c(F)c4c3CCN2c2ncc(Cl)cn2)cc1 (centres unmarked) [Compound 85, 2-(5-chloropyrimidin-2-yl)-5,6-difluoro-1-(4-fluorophenyl)-2,3,4,9-tetrahydro-1H-pyrido[3,4-b]indole] | 162 nM
4 | Cc1ccnc(N2CCc3c([nH]c4ccc(Cl)c(F)c34)C2c2ccc(F)cc2)n1 (centres unmarked) [Compound 90, 6-chloro-5-fluoro-1-(4-fluorophenyl)-2-(4-methylpyrimidin-2-yl)-2,3,4,9-tetrahydro-1H-pyrido[3,4-b]indole] | 29.1 nM
5 | Cc1ncc(C2c3[nH]c4cc(F)c(Cl)cc4c3CCN2c2ncc(F)cn2)cn1 (centres unmarked) [Compound 91, 6-chloro-7-fluoro-2-(5-fluoropyrimidin-2-yl)-1-(2-methylpyrimidin-5-yl)-2,3,4,9-tetrahydro-1H-pyrido[3,4-b]indole] | 89.9 nM
6 | Cc1ncc(C2c3[nH]c4cc(F)c(Cl)cc4c3CCN2c2nccc(C(F)(F)F)n2)cn1 (centres unmarked) [Compound 92, 6-chloro-7-fluoro-1-(2-methylpyrimidin-5-yl)-2-[4-(trifluoromethyl)pyrimidin-2-yl]-2,3,4,9-tetrahydro-1H-pyrido[3,4-b]indole] | 34.6 nM
7 | Cc1ccnc(N2CCc3c([nH]c4cc(F)c(Cl)cc34)C2c2cnc(N(C)C)nc2)n1 (centres unmarked) [Compound 94, 5-[6-chloro-7-fluoro-2-(4-methylpyrimidin-2-yl)-2,3,4,9-tetrahydro-1H-pyrido[3,4-b]indol-1-yl]-N,N-dimethylpyrimidin-2-amine] | 22.2 nM
8 | Cc1ccc(C2c3[nH]c4cc(F)c(Cl)cc4c3CCN2c2ncc(C(F)(F)F)cn2)cc1 (centres unmarked) [Compound 97, 6-chloro-7-fluoro-1-(4-methylphenyl)-2-[5-(trifluoromethyl)pyrimidin-2-yl]-2,3,4,9-tetrahydro-1H-pyrido[3,4-b]indole] | 15.3 nM
9 | Fc1ccc(C2c3[nH]c4cc(F)c(Cl)cc4c3CCN2c2ncc(C(F)(F)F)cn2)cc1 (centres unmarked) [Compound 98, 6-chloro-7-fluoro-1-(4-fluorophenyl)-2-[5-(trifluoromethyl)pyrimidin-2-yl]-2,3,4,9-tetrahydro-1H-pyrido[3,4-b]indole] | 41.6 nM
10 | CC(C)c1ccc(C2c3[nH]c4cc(F)c(Cl)cc4c3CCN2c2ncc(C(F)(F)F)cn2)cc1 (centres unmarked) [Compound 99, 6-chloro-7-fluoro-1-[4-(propan-2-yl)phenyl]-2-[5-(trifluoromethyl)pyrimidin-2-yl]-2,3,4,9-tetrahydro-1H-pyrido[3,4-b]indole] | 14 nM
11 | Cc1ncc(C2c3[nH]c4cc(F)c(Cl)cc4c3CCN2c2ncc(Cl)cn2)cn1 (centres unmarked) [Compound 101, 6-chloro-2-(5-chloropyrimidin-2-yl)-7-fluoro-1-(2-methylpyrimidin-5-yl)-2,3,4,9-tetrahydro-1H-pyrido[3,4-b]indole] | 110 nM
12 | CN(C)c1ncc(C2c3[nH]c4cc(F)c(Cl)cc4c3CCN2c2ncc(Cl)cn2)cn1 (centres unmarked) [Compound 102, 5-[6-chloro-2-(5-chloropyrimidin-2-yl)-7-fluoro-2,3,4,9-tetrahydro-1H-pyrido[3,4-b]indol-1-yl]-N,N-dimethylpyrimidin-2-amine] | 19.6 nM
13 | COC(=O)c1ccnc(N2CCc3c([nH]c4ccc(Cl)c(F)c34)C2c2ccc(C#N)cc2)n1 (centres unmarked) [Compound 104, methyl 2-[6-chloro-1-(4-cyanophenyl)-5-fluoro-1,3,4,9-tetrahydro-2H-pyrido[3,4-b]indol-2-yl]pyrimidine-4-carboxylate] | 30.4 nM
14 | Cc1nc(N2CCc3c([nH]c4cc(F)c(Cl)cc34)C2c2ccc(F)cc2)ncc1F (centres unmarked) [Compound 105, 6-chloro-7-fluoro-2-(5-fluoro-4-methylpyrimidin-2-yl)-1-(4-fluorophenyl)-2,3,4,9-tetrahydro-1H-pyrido[3,4-b]indole] | 23.3 nM
15 | CS(=O)(=O)c1ccc(C2c3[nH]c4cc(F)c(Cl)cc4c3CCN2c2ncc(F)cn2)cc1 (centres unmarked) [Compound 107, 6-chloro-7-fluoro-2-(5-fluoropyrimidin-2-yl)-1-[4-(methanesulfonyl)phenyl]-2,3,4,9-tetrahydro-1H-pyrido[3,4-b]indole] | 44.6 nM

Now those with a lower IC50, led by results:

Row | IC50 | SMILES
16 | 7.9 nM | COC(=O)c1ccnc(N2CCc3c([nH]c4ccc(Cl)c(F)c34)C2c2ccc(Cl)cc2)n1 (centres unmarked) [Compound 87, methyl 2-[6-chloro-1-(4-chlorophenyl)-5-fluoro-1,3,4,9-tetrahydro-2H-pyrido[3,4-b]indol-2-yl]pyrimidine-4-carboxylate]
17 | 2.3 nM | Cc1cc(C(F)(F)F)nc(N2CCc3c([nH]c4cc(F)c(Cl)cc34)C2c2ccc(C#N)cc2)n1 (centres unmarked) [Compound 88, 4-{6-chloro-7-fluoro-2-[4-methyl-6-(trifluoromethyl)pyrimidin-2-yl]-2,3,4,9-tetrahydro-1H-pyrido[3,4-b]indol-1-yl}benzonitrile]
18 | 5.7 nM | N#Cc1ccc(C2c3[nH]c4ccc(Cl)c(F)c4c3CCN2c2nccc(C(F)(F)F)n2)cc1 (centres unmarked) [Compound 89, 4-{6-chloro-5-fluoro-2-[4-(trifluoromethyl)pyrimidin-2-yl]-2,3,4,9-tetrahydro-1H-pyrido[3,4-b]indol-1-yl}benzonitrile]
19 | 9.7 nM | Cc1cc(C)nc(N2CCc3c([nH]c4cc(F)c(Cl)cc34)C2c2ccc(C#N)cc2)n1 (centres unmarked) [Compound 93, 4-[6-chloro-2-(4,6-dimethylpyrimidin-2-yl)-7-fluoro-2,3,4,9-tetrahydro-1H-pyrido[3,4-b]indol-1-yl]benzonitrile]
20 | 4.6 nM | CN(C)c1ncc(C2c3[nH]c4cc(F)c(Cl)cc4c3CCN2c2nccc(C(F)(F)F)n2)cn1 (centres unmarked) [Compound 95, 5-{6-chloro-7-fluoro-2-[4-(trifluoromethyl)pyrimidin-2-yl]-2,3,4,9-tetrahydro-1H-pyrido[3,4-b]indol-1-yl}-N,N-dimethylpyrimidin-2-amine]
21 | 1.9 nM | Cc1ccc(C2c3[nH]c4cc(F)c(Cl)cc4c3CCN2c2nc(C)cc(C(F)(F)F)n2)cc1 (centres unmarked) [Compound 96, 6-chloro-7-fluoro-1-(4-methylphenyl)-2-[4-methyl-6-(trifluoromethyl)pyrimidin-2-yl]-2,3,4,9-tetrahydro-1H-pyrido[3,4-b]indole]
22 | 6.4 nM | N#Cc1ccc(C2c3[nH]c4cc(F)c(Cl)cc4c3CCN2c2nccc(C(F)(F)F)n2)cc1 (centres unmarked) [Compound 100, 4-{6-chloro-7-fluoro-2-[4-(trifluoromethyl)pyrimidin-2-yl]-2,3,4,9-tetrahydro-1H-pyrido[3,4-b]indol-1-yl}benzonitrile]
23 | 5.6 nM | Cc1ccc(C2c3[nH]c4ccc(Cl)c(F)c4c3CCN2c2ncc(F)c(C)n2)cc1 (centres unmarked) [Compound 109, 6-chloro-5-fluoro-2-(5-fluoro-4-methylpyrimidin-2-yl)-1-(4-methylphenyl)-2,3,4,9-tetrahydro-1H-pyrido[3,4-b]indole]
24 | 2.8 nM | Cc1ccc(C2c3[nH]c4ccc(Cl)c(F)c4c3CCN2c2nc(C)cc(C#N)n2)cc1 (centres unmarked) [Compound 110, 2-[6-chloro-5-fluoro-1-(4-methylphenyl)-1,3,4,9-tetrahydro-2H-pyrido[3,4-b]indol-2-yl]-6-methylpyrimidine-4-carbonitrile]
25 | 8.1 nM | Cc1cc(C#N)nc(N2CCc3c([nH]c4ccc(Cl)c(F)c34)C2c2ccc(F)cc2)n1 (centres unmarked) [Compound 111, 2-[6-chloro-5-fluoro-1-(4-fluorophenyl)-1,3,4,9-tetrahydro-2H-pyrido[3,4-b]indol-2-yl]-6-methylpyrimidine-4-carbonitrile]
26 | 3.8 nM | Cc1nc(N2CCc3c([nH]c4cc(F)c(Cl)cc34)C2c2cccc(F)c2F)nc(C)c1F (centres unmarked) [Compound 112, 6-chloro-1-(2,3-difluorophenyl)-7-fluoro-2-(5-fluoro-4,6-dimethylpyrimidin-2-yl)-2,3,4,9-tetrahydro-1H-pyrido[3,4-b]indole]
27 | 2.6 nM | Cc1nc(N2CCc3c([nH]c4ccc(Cl)c(F)c34)C2c2cccc(F)c2F)ncc1F (centres unmarked) [Compound 113, 6-chloro-1-(2,3-difluorophenyl)-5-fluoro-2-(5-fluoro-4-methylpyrimidin-2-yl)-2,3,4,9-tetrahydro-1H-pyrido[3,4-b]indole]
28 | 1.1 nM | Cc1ccc(C2c3[nH]c4ccc(Cl)c(F)c4c3CCN2c2ncc(F)c(C)n2)c(F)c1F (centres unmarked) [Compound 114, 6-chloro-1-(2,3-difluoro-4-methylphenyl)-5-fluoro-2-(5-fluoro-4-methylpyrimidin-2-yl)-2,3,4,9-tetrahydro-1H-pyrido[3,4-b]indole]
29 | 9.4 nM | NS(=O)(=O)c1ccc(C2c3[nH]c4cc(F)c(Cl)cc4c3CCN2c2nccc(C(F)(F)F)n2)cc1 (centres unmarked) [Compound 115, 4-{6-chloro-7-fluoro-2-[4-(trifluoromethyl)pyrimidin-2-yl]-2,3,4,9-tetrahydro-1H-pyrido[3,4-b]indol-1-yl}benzene-1-sulfonamide]
30 | 6.7 nM | Cc1ccc(C2c3[nH]c4ccc(Cl)c(F)c4c3CCN2c2nc(C)c(F)c(C)n2)cc1 (centres unmarked) [Compound 116, 6-chloro-5-fluoro-2-(5-fluoro-4,6-dimethylpyrimidin-2-yl)-1-(4-methylphenyl)-2,3,4,9-tetrahydro-1H-pyrido[3,4-b]indole]
31 | 2 nM | Cc1nc(N2CCc3c([nH]c4ccc(Cl)c(F)c34)C2c2cccc(F)c2F)nc(C)c1F (centres unmarked) [Compound 117, 6-chloro-1-(2,3-difluorophenyl)-5-fluoro-2-(5-fluoro-4,6-dimethylpyrimidin-2-yl)-2,3,4,9-tetrahydro-1H-pyrido[3,4-b]indole]
32 | 1 nM | Cc1ccc(C2c3[nH]c4ccc(Cl)c(F)c4c3CCN2c2nc(C)c(F)c(C)n2)c(F)c1F (centres unmarked) [Compound 118, 6-chloro-1-(2,3-difluoro-4-methylphenyl)-5-fluoro-2-(5-fluoro-4,6-dimethylpyrimidin-2-yl)-2,3,4,9-tetrahydro-1H-pyrido[3,4-b]indole]

Source: patent US20250186437A1, “CARBOLINE COMPOUNDS AND USE THEREOF” (PTC Therapeutics, Inc., priority 2021, published 2025)
